Values quoted from earlier work, collected in publication PMC8845813 (Angewandte Chemie (International ed. in English), 2021).

System: LC3A and LC3B LIR-interaction interface

Q: Which “potency at LC3A and LC3B LIR-interaction interface” value does the source give for `CO[C@@H]1[C@@H](OC(N)=O)[C@@H](O)[C@H](Oc2ccc3c(O)c(NC(=O)c4ccc(O)c(CC=C(C)C)c4)c(=O)oc3c2C)OC1(C)C` [novobiocin] here?
A: weak potency
